Source: the NIST ThermoML archive (doi:10.1021/je0342062)

How the values were obtained:
[1] = 101.33 kPa, Liquid, Vibrating tube method
[2] = excess molar enthalpy (molar enthalpy of mixing); xn = mol fraction of the nth substance listed; details: 308.15 K, 101.32 kPa, Liquid
[3] = xn = mol fraction of the nth substance listed; details: 308.15 K, 101.32 kPa, Liquid, Vibrating tube method

OCc1ccccc1 [benzenemethanol]
[1]
Details | mass density [kg/m3]
298.15 K | 1041.46
308.15 K | 1033.7

OCc1ccccc1 [benzenemethanol] + OCCOCCO
Details | excess molar enthalpy [kJ/mol] | mass density [kg/m3]
[2], x2 = 0.0434 | -0.141 | –
[2], x2 = 0.0833 | -0.236 | –
[2], x2 = 0.1199 | -0.3 | –
[2], x2 = 0.1537 | -0.344 | –
[2], x2 = 0.2142 | -0.395 | –
[2], x2 = 0.2665 | -0.422 | –
[2], x2 = 0.3528 | -0.439 | –
[2], x2 = 0.4208 | -0.447 | –
[2], x2 = 0.5216 | -0.457 | –
[2], x2 = 0.6206 | -0.449 | –
[2], x2 = 0.6856 | -0.429 | –
[2], x2 = 0.7658 | -0.371 | –
[2], x2 = 0.8135 | -0.331 | –
[2], x2 = 0.8674 | -0.251 | –
[2], x2 = 0.897 | -0.209 | –
[2], x2 = 0.929 | -0.151 | –
[2], x2 = 0.9632 | -0.0826 | –
[3], x2 = 0.0719 | – | 1038.79
[3], x2 = 0.1308 | – | 1042.93
[3], x2 = 0.2285 | – | 1049.76
[3], x2 = 0.3115 | – | 1055.63
[3], x2 = 0.4139 | – | 1062.92
[3], x2 = 0.5312 | – | 1071.36
[3], x2 = 0.6035 | – | 1076.6
[3], x2 = 0.7277 | – | 1085.7
[3], x2 = 0.8237 | – | 1092.77
[3], x2 = 0.8597 | – | 1095.43
[3], x2 = 0.8984 | – | 1098.29
[3], x2 = 0.9539 | – | 1102.43

OCCOCCOCCO [triethylene glycol]
[1]
Details | mass density [kg/m3]
298.15 K | 1119.78
308.15 K | 1112.61

OCc1ccccc1 [benzenemethanol] + OCCOCCOCCO
Details | excess molar enthalpy [kJ/mol] | mass density [kg/m3]
[2], x2 = 0.0313 | -0.139 | –
[2], x2 = 0.0606 | -0.241 | –
[2], x2 = 0.0883 | -0.315 | –
[2], x2 = 0.1143 | -0.369 | –
[2], x2 = 0.1623 | -0.434 | –
[2], x2 = 0.2047 | -0.466 | –
[2], x2 = 0.2792 | -0.492 | –
[2], x2 = 0.3405 | -0.502 | –
[2], x2 = 0.4366 | -0.505 | –
[2], x2 = 0.5376 | -0.504 | –
[2], x2 = 0.6078 | -0.5 | –
[2], x2 = 0.6992 | -0.455 | –
[2], x2 = 0.756 | -0.405 | –
[2], x2 = 0.823 | -0.331 | –
[2], x2 = 0.8613 | -0.278 | –
[2], x2 = 0.9029 | -0.21 | –
[2], x2 = 0.949 | -0.1 | –
[3], x2 = 0.0519 | – | 1039.48
[3], x2 = 0.174 | – | 1051.93
[3], x2 = 0.2411 | – | 1058.18
[3], x2 = 0.3373 | – | 1066.69
[3], x2 = 0.4327 | – | 1074.57
[3], x2 = 0.5295 | – | 1082.04
[3], x2 = 0.632 | – | 1089.43
[3], x2 = 0.7533 | – | 1097.6
[3], x2 = 0.8256 | – | 1102.12
[3], x2 = 0.8572 | – | 1104.07
[3], x2 = 0.9337 | – | 1108.5
[3], x2 = 0.961 | – | 1110.01

OCCOCCO [diethylene glycol]
[1]
Details | mass density [kg/m3]
298.15 K | 1112.38
308.15 K | 1105.88

OCc1ccccc1 [benzenemethanol] + OCCO
Details | excess molar enthalpy [kJ/mol] | mass density [kg/m3]
[2], x2 = 0.0719 | 0.116 | –
[2], x2 = 0.1341 | 0.171 | –
[2], x2 = 0.1886 | 0.202 | –
[2], x2 = 0.2365 | 0.209 | –
[2], x2 = 0.3173 | 0.214 | –
[2], x2 = 0.3826 | 0.21 | –
[2], x2 = 0.4817 | 0.201 | –
[2], x2 = 0.5533 | 0.191 | –
[2], x2 = 0.6502 | 0.168 | –
[2], x2 = 0.7361 | 0.138 | –
[2], x2 = 0.788 | 0.118 | –
[2], x2 = 0.848 | 0.086 | –
[2], x2 = 0.8815 | 0.0712 | –
[2], x2 = 0.9177 | 0.0477 | –
[2], x2 = 0.937 | 0.0366 | –
[2], x2 = 0.9571 | 0.0252 | –
[2], x2 = 0.9781 | 0.0125 | –
[3], x2 = 0.0395 | – | 1035.06
[3], x2 = 0.1313 | – | 1038.54
[3], x2 = 0.2622 | – | 1044.29
[3], x2 = 0.3189 | – | 1047.1
[3], x2 = 0.4645 | – | 1055.28
[3], x2 = 0.5057 | – | 1057.9
[3], x2 = 0.609 | – | 1065.04
[3], x2 = 0.6863 | – | 1071.03
[3], x2 = 0.7371 | – | 1075.32
[3], x2 = 0.8097 | – | 1081.99
[3], x2 = 0.879 | – | 1088.96
[3], x2 = 0.9638 | – | 1098.48
